Source: PMC3409115, “Diverse Inhibitor Chemotypes Targeting Trypanosoma cruzi CYP51” (PLoS Neglected Tropical Diseases, 2012)
Where two headings read alike, the source gives them in different places.

Test system: T. cruzi-infected skeletal myoblasts (intracellular amastigotes)
Assay: Hit cross-validation in T. cruzi-infected mammalian cells (image-based assay)
Format: cell-based, Trypanosoma cruzi
Details: for Intracellular amastigotes in DAPI images after 72 h treatment: Compound 1 at 0.123 µM and 10 µM, Compound 13 at 10 µM; for EC50: Trypanosoma cruzi, Myoblast

| SMILES | Intracellular amastigotes in DAPI images after 72 h treatment | EC50 (72 h, T. cruzi-infected myoblasts, 72 h treatment, read-out: EC50 in image-based HTS cross-validation assay) [nM] | EC50 (in Mus musculus, T. cruzi amastigotes cultured in mouse myoblasts, averaged from two independent assays, read-out: EC50 in low throughput validation (repurchased hit)) [nM] | EC50 (72 h, T. cruzi-infected myoblasts, 72 h treatment, repurchased compound, read-out: EC50 averaged from two independent cross-validation assays for individually repurchased hits) [nM] | EC50 (72 h, T. cruzi-infected myoblasts, 72 h treatment, read-out: EC50 against T. cruzi parasites in HTS assay used to rank order the hits) [nM] |
| --- | --- | --- | --- | --- | --- |
| Brc1ccccc1OCCCCCCn1ccnc1 [Compound 1] | elimination of intracellular amastigotes | 70 | 17 | – | – |
| O=C(c1ccc(Cl)cc1)C(Oc1ccc(Cl)cc1)n1cncn1 (stereo not drawn) [Compound 13, 2-(4-chlorophenoxy)-1-(4-chlorophenyl)-2-(1H-1,2,4-triazol-1-yl)ethanone] | elimination of intracellular amastigotes | – | – | 1300 | 1310 |
